Structures are written as SMILES.

One experiment relates to HIV-1 (strain IIIB). Nature of the experiment: Antiviral activity assay in MT4 cells (propidium iodide based). The class given is cell-based. To be noted: Human immunodeficiency virus 1, IIIB; wild type HIV-1 virus, MT4 cells; read-out: Wildtype virus - IC50. The method, then: Antiviral Activity Assay in MT4 Cells
Aliquots of the test compounds were serially diluted in medium (RPMI 1640, 10% fetal calf serum (FCS), and gentamycin) in 96-well plates (Costar 3598) using a Cetus Pro/Pette. Exponentially growing MT4 cells were harvested and centrifuged at 1000 rpm for 10 min in a Jouan centrifuge (model CR 4 12). Cell pellets were resuspended in fresh medium (RPMI 1640, 20% FCS, 20% IL-2, and gentamycin) to a density of 5×10^5 cells/ml. Cell aliquots were infected by the addition of HIV-1 (strain IIIB) diluted to give a viral multiplicity of infection of 100×TCID50. A similar cell aliquot was diluted with medium to provide a mock-infected control. Cell infection was allowed to proceed for 1 hr at 37° in a tissue culture incubator with humidified 5% CO2 atmosphere. After the 1 hr incubation the virus/cell suspensions were diluted 6-fold with fresh medium, and 125 μl of the cell suspension was added to each well of the plate containing pre-diluted compound. Plates were then placed in a tissue culture incubator with humidified 5% CO2 for 5 days. At the end of the incubation period, 27 μl of 5% Nonidet-40 was added to each well of the incubation plate. After thorough mixing with a Costar multitip pipetter, 60 μl of the mixture was transferred to filter-bottomed 96-well plates. The plates were analyzed in an automated assay instrument (Screen Machine, Idexx Laboratories). The assay makes use of a propidium iodide dye to estimate the DNA content of each well.
The anti-viral potency in MT-4 cells of the compounds set forth in Tables 1 and 2 was determined using the above technique.
Regarding `CCC(CC)ON(C[C@@H](O)[C@H](Cc1ccc(OCc2ccccc2)cc1)NC(=O)OC1COCOC1)S(=O)(=O)c1ccc2c(c1)OCO2` [Compound 330, 1,3-Dioxan-5-yl (1S,2R)-3-[(1,3-benzodioxol-5-ylsulfonyl) (1-ethylpropoxy)amino]-1-[4-(benzyloxy)benzyl]-2-hydroxypropylcarbamate], the IC50 was in the range of 10 to 100 nM.
Regarding `CC(C)CN(C[C@@H](O)[C@H](Cc1ccc(OCCN)cc1)NC(=O)O[C@H]1CO[C@H]2OCC[C@H]21)S(=O)(=O)c1ccc2c(c1)OCO2` [Compound 354, (3R,3aS,6aR)hexahydrofuro[2,3-b]furan-3-yl (1S,2R)-3-[(1,3-benzodioxol-5-ylsulfonyl)(isobutyl)amino]-2-hydroxy-1-[4-(2-aminoethoxy)benzyl]propylcarbamate], the IC50 lay within 10 to 100 nM.
As for `CSc1ccc(COc2ccc(C[C@H](NC(=O)O[C@H]3CO[C@H]4OCC[C@H]43)[C@H](O)CN(CC(C)C)S(=O)(=O)c3ccc4c(c3)OCO4)cc2)cc1` [Compound 369], the half-maximal inhibitory concentration (IC50) is 1 to 10 nM.
Turning to `CCOC(CCOC(=O)N[C@@H](Cc1ccc(OCc2ccccc2)cc1)[C@H](O)CN(CC(C)C)S(=O)(=O)c1ccc2c(c1)OCO2)OCC` [Compound 328, 3,3-Diethoxypropyl (1S,2R)-3-[(1,3-benzodioxol-5-ylsulfonyl)(isobutyl)amino]-1-[4-(benzyloxy)benzyl]-2-hydroxypropylcarbamate], the half-inhibitory concentration (IC50) was 10 to 100 nM.
`CC(C)CN(C[C@@H](O)[C@H](Cc1ccc(OCc2ccccc2)cc1)NC(=O)O[C@H]1CO[C@H]2OCC[C@H]21)S(=O)(=O)c1ccc2c(c1)OC(F)(F)O2` [Compound 340, (3R,3aS,6aR)-hexahydrofuro[2,3-b]furan-3-yl (1S,2R)-1-[4-(benzyloxy)benzyl]-3-[[(2,2-difluoro-1,3-benzodioxol-5-yl)sulfonyl](isobutyl)amino]-2-hydroxypropylcarbamate]: the IC50 was in the range of 10 to 100 nM.
On the same count and under the same terms, the figure for `CC(C)CN(C[C@@H](O)[C@H](Cc1ccc(OCCCN)cc1)NC(=O)OC1CO[C@H]2OCC[C@@H]12)S(=O)(=O)c1ccc2c(c1)OCO2` (stereo in doubt) [Compound 222, (3R,3aS,6aR)-hexahydrofuro[2,3-b]furan-3-yl (1S,2R)-1-[4-(3-aminopropoxy)benzyl]-3-[(1,3-benzodioxol-5-ylsulfonyl)(isobutyl)amino]-2-hydroxypropylcarbamate] is 10 to 100 nM; for `CC(C)CN(C[C@@H](O)[C@H](Cc1ccc(OCCCCN)cc1)NC(=O)O[C@H]1CO[C@H]2OCC[C@H]21)S(=O)(=O)c1ccc2c(c1)OCO2` [Compound 224, (3R,3aS,6aR)-hexahydrofuro[2,3-b]furan-3-yl (1S,2R)-1-[4-(4-aminobutoxy)benzyl]-3-[(1,3-benzodioxol-5-ylsulfonyl) (isobutyl)amino]-2-hydroxypropylcarbamate] it is 10 to 100 nM.
On the same count and under the same terms, the figure for `CC(C)(CCCC#N)CN(C[C@@H](O)[C@H](Cc1ccc(OCc2ccccc2)cc1)NC(=O)OC1COCOC1)S(=O)(=O)c1ccc2c(c1)OCO2` [Compound 306, 1,3-Dioxan-5-yl (1S,2R)-3-[(1,3-benzodioxol-5-ylsulfonyl)(5-cyano-2,2-dimethylpentyl)amino]-1-[4 (benzyloxy)benzyl]-2-hydroxypropylcarbamate] is 10 to 100 nM.

The experiment is the same for the next values; noted with them: Human immunodeficiency virus 1, MT4, 120 h; MT-4 cells, HIV-1 strain IIIB, 5 days; read-out: IC50 (Antiviral Activity of Compounds of the Invention).
With `CC(C)CN(C[C@@H](O)[C@H](Cc1ccc(OCc2ccccc2)cc1)NC(=O)O[C@H]1CO[C@H]2OCC[C@H]21)S(=O)(=O)c1ccc2nc(N)sc2c1` [Compound 44, Bis-THF Benzothiazolesulfonamide Benzyl Ether], the half-inhibitory concentration (IC50) was below 1 nM.
For the compound `CC(C)CN(C[C@@H](O)[C@H](Cc1ccc(OCCCN2CCOCC2)cc1)NC(=O)OC(C)(C)C)S(=O)(=O)c1ccc2c(c1)OCO2` [Compound 20, Boc Methylenedioxybenzenesulfonamide Propylmorpholine Tethered Product], the IC50 was 10 to 100 nM.

Still in this experiment, the particulars now being: MT-4 cells, HIV-1 strain IIIB, 5 days; read-out: IC50 (Antiviral Activity of Compounds of the Invention).
Take `CC(C)CN(CC(O)C(Cc1ccc(OCCN2CCOCC2)cc1)NC(=O)OC1COC2OCCC12)S(=O)(=O)c1cccc(N)c1` (centres unmarked) [Compound 37]: the IC50 is 10 to 100 nM.
On to `Cc1cc(S(=O)(=O)N(CC(C)C)CC(O)C(Cc2ccc(OCc3ccccc3)cc2)NC(=O)OC2COC3OCCC23)ccc1O` (centres unmarked) [Compound 38], for which the concentration for half-maximal inhibition (IC50) was below 1 nM.
Consider `CC(C)CN(CC(O)C(Cc1ccc(OCCCN2CCOCC2)cc1)NC(=O)OC1COC2OCCC12)S(=O)(=O)c1ccc(N)cc1` (centres unmarked) [Compound 30], for which the half-inhibitory concentration (IC50) lay within 10 to 100 nM.
Still for that read-out and setting: for `COCCN(CCOC)CCOc1ccc(CC(NC(=O)OC2COC3OCCC23)C(O)CN(CC(C)C)S(=O)(=O)c2ccc(N)cc2)cc1` (centres unmarked) [Compound 27] the value was above 100 nM.
For `CC(C)CN(CC(O)C(Cc1ccc(O)cc1)NC(=O)OC1COC2OCCC12)S(=O)(=O)c1ccc(N)cc1` (centres unmarked) [Compound 32], the IC50 was 10 to 100 nM.
Still for that read-out and setting: for `COCCN(CCOC)CCOc1ccc(CC(NC(=O)OC2CCOC2)C(O)CN(CC(C)C)S(=O)(=O)c2ccc3c(c2)OCO3)cc1` (centres unmarked) [Compound 24] the value was 10 to 100 nM; for `CC(C)CN(CC(O)C(Cc1ccc(OCCCN2CCOCC2)cc1)NC(=O)OC(C)(C)C)S(=O)(=O)c1cccc(N)c1` (centres unmarked) [Compound 16], above 100 nM; for `CC(C)CN(CC(O)C(Cc1ccc(OCc2ccccn2)cc1)NC(=O)OC1COC2OCCC12)S(=O)(=O)c1cccc(N)c1` (centres unmarked) [Compound 36], 10 to 100 nM.
Consider `CC(C)CN(CC(O)C(Cc1ccc(OCc2ccccc2)cc1)NC(=O)OC1COC2OCCC12)S(=O)(=O)c1ccc(N)cc1` (centres unmarked) [Compound 26], for which the half-maximal inhibitory concentration (IC50) was below 1 nM.
On the same count and under the same terms, the figure for `CC(C)CN(CC(O)C(Cc1ccc(OCCCN2CCOCC2)cc1)NC(=O)OC(C)(C)C)S(=O)(=O)c1ccc(N)cc1` (centres unmarked) [Compound 11] is above 100 nM.
For `CC(C)CN(CC(O)C(Cc1ccc(OCCN2CCOCC2)cc1)NC(=O)OC1CCOC1)S(=O)(=O)c1cccc(N)c1` (centres unmarked) [Compound 23], the concentration for half-maximal inhibition (IC50) lay in the range of 10 to 100 nM.
`Cc1cc(COc2ccc(CC(NC(=O)OC3COC4OCCC34)C(O)CN(CC(C)C)S(=O)(=O)c3ccc(N)cc3)cc2)no1` (centres unmarked) [Compound 33]: the concentration for half-maximal inhibition (IC50) lay within 10 to 100 nM.
Same read-out and setting: for `COCCN(CCOC)CCOc1ccc(CC(NC(=O)OC(C)(C)C)C(O)CN(CC(C)(C)CCC#N)S(=O)(=O)c2ccc(N)cc2)cc1` (centres unmarked) [Compound 67] the value was above 100 nM.

The experiment is the same for the next values; noted with them: wild type HIV-1 virus, MT4 cells; read-out: Wildtype virus - IC50.
On to `CC(C)CN(C[C@@H](O)[C@H](Cc1ccc(OCCCNC(=O)N(C)C)cc1)NC(=O)O[C@H]1CO[C@H]2OCC[C@H]21)S(=O)(=O)c1ccc2c(c1)OCO2` [Compound 254], for which the half-inhibitory concentration (IC50) is 1 to 10 nM.
With `CC(C)CN(C[C@@H](O)[C@H](Cc1ccc(OCCCc2cccnc2)cc1)NC(=O)O[C@H]1CO[C@H]2OCC[C@H]21)S(=O)(=O)c1ccc2c(c1)OCO2` [Compound 214], the 50% inhibitory concentration (IC50) was in the range of 1 to 10 nM.
With `N#Cc1cccc(COc2ccc(C[C@H](NC(=O)O[C@H]3CO[C@H]4OCC[C@H]43)[C@H](O)CN(CC3CCCC3)S(=O)(=O)c3ccc4c(c3)OCO4)cc2)c1` [Compound 396, (3R,3aS,6aR)-hexahydrofuro[2,3-b]furan-3-yl (1S,2R)-3-[(1,3-benzodioxol-5-ylsulfonyl)(cyclopentylmethyl)amino-]-1-{4-[(3-cyanobenzyl)oxy]benzyl}-2-hydroxypropylcarbamate], the IC50 is 1 to 10 nM.
In the case of `CC(C)CN(C[C@@H](O)[C@H](Cc1ccc(OCc2ccsc2)cc1)NC(=O)O[C@H]1CO[C@H]2OCC[C@H]21)S(=O)(=O)c1ccc2c(c1)OCO2` [Compound 207], the IC50 was 1 to 10 nM.
As to `CC(C)CN(C[C@@H](O)[C@H](Cc1ccc(OCCCNC(=O)OC(C)C)cc1)NC(=O)O[C@H]1CO[C@H]2OCC[C@H]21)S(=O)(=O)c1ccc2c(c1)OCO2` [Compound 249], the 50% inhibitory concentration (IC50) was in the range of 1 to 10 nM.
In the case of `CC(C)CN(C[C@@H](O)[C@H](Cc1ccc(OCCNC(=O)OC(C)C)cc1)NC(=O)O[C@H]1CO[C@H]2OCC[C@H]21)S(=O)(=O)c1ccc2c(c1)OCO2` [Compound 248], the IC50 fell in the range of 1 to 10 nM.
As for `CCOC(=O)NCCCOc1ccc(C[C@H](NC(=O)O[C@H]2CO[C@H]3OCC[C@H]32)[C@H](O)CN(CC(C)C)S(=O)(=O)c2ccc3c(c2)OCO3)cc1` [Compound 246], the IC50 was in the range of 1 to 10 nM.
On to `CC(C)CN(C[C@@H](O)[C@H](Cc1ccc(OCCNC(=O)c2ccco2)cc1)NC(=O)O[C@H]1CO[C@H]2OCC[C@H]21)S(=O)(=O)c1ccc2c(c1)OCO2` [Compound 234], for which the IC50 lay within 1 to 10 nM.
`CC(C)CN(C[C@@H](O)[C@H](Cc1ccc(OCCCCNC(=O)OC(C)C)cc1)NC(=O)O[C@H]1CO[C@H]2OCC[C@H]21)S(=O)(=O)c1ccc2c(c1)OCO2` [Compound 250]: the IC50 was 1 to 10 nM.

As a reminder, the IC50 is the point on the concentration scale where inhibition reaches its midpoint.
